Laboratory results taken from patent US7220755B2, “42-O-alkoxyalkyl rapamycin derivatives and compositions comprising same” (Biosensors International Group, Ltd., priority 2003, dated 2007).
Entries after “also recorded” stand apart in the source; their conditions may differ.

Experiments:
[1] = tested on: porcine smooth muscle cells; assay: In vitro potency: growth suppression of smooth muscle cell cultures (porcine); assay type: cell-based; conditions: over five orders of magnitude concentration
[2] = In vitro release rate of drug from polymer-coated stents into ethanol-water bath; assay type: physicochemical; conditions: at 96 hours; unstirred ethanol-water bath at 37° C.; poly-dl-lactic acid coated stents, average drug load 230 μg
Experimental: The in vitro release rate of drug from the stents into an unstirred, ethanol-water bath at 37° C. was measured and the results are shown in FIG. 4. The six curves in FIG. 4 correspond to six stents carrying a poly-dl-lactic acid polymer loaded with 42-O-(2-ethoxyethyl) rapamycin. Each stent held between about 224–235 μg of drug, with an average drug load of 230 μg. The polymer-drug coated stents were sterilized at 25 KGy or at 27.5 KGy prior to measuring the release rate.
100 mg poly (dl-lactide) was dissolved into 2 mL acetone at room temperature. 5 mg 42-O-(2-ethoxyethyl) rapamycin was placed in a vial and 100 μL lactide solution added. A microprocessor-controlled syringe pump was used to precision dispense 4.5 μL of the drug containing poly-dl-lactide solution to the outer surface of a metal S-Stent (available from Biosensors International Inc, Newport Beach, Calif.).

[3] = tested on: pig coronary arteries (restenosis); assay: 30-day implantation of drug-eluting stents in pig coronary arteries (late loss vs injury score); conditions: 30 days in pig vessels; for intercept of the zero injury (late loss) / neointimal response to injury (slope of the regression line of late loss vs injury score): FIG. 10
Experimental: After preparation of the stents having a polymer-drug coating, they were implanted, as described in Example 5, into pigs for a thirty day period.
As described in Example 5, nine stents eluting 42-O-(2-ethoxyethyl) rapamycin from a polymer layer of poly-lactic acid were implanted in pigs and six control, bare metal stents were implanted. […] Quantitative coronary angiography was performed to measure the vessel lumen diameter immediately before and after stent placement and also 30 days later just prior to the follow-up angiogram taken at animal sacrifice. […] Percent stenosis (% stenosis) was determined from the measurements as: % Stenosis=[(RVD−MLD)/RVD]×100 where MLD is minimum lumen diameter and RVD is distal and proximal reference vessel diameter. The stent to artery ratio was also calculated from these measurements. The angiographic percent stenosis was calculated from the measurements of minimum lumen diameter obtained at the follow-up angiogram.
The photographs in FIGS. 5–9 permit determination via planimetry of the area of new tissue inside the stent after 30 days in vivo. The average thickness of new tissue formed inside the stent for each implant was determined and plotted against an injury score, also determined after the 30 day test period. A least-squares linear regression analysis of the data provides a sensitive method to compare the therapeutic benefit of different stent compositions.
The degree of vascular injury was also quantified by assigning an “injury score” based on the amount and length of tear of the different wall structures. The degree of injury was calculated as follows: • 0=intact internal elastic lamina • 1=ruptured internal elastic lamina with exposure to superficial medial layers (minor injury) • 2=ruptured internal elastic lamina with exposure to deeper medial layers (medial dissection) • 3=ruptured external elastic lamina with exposure to the adventitia. The mean injury score for each arterial segment was calculated by dividing the sum of injury scores at each stent strut site by the total number of stent struts in the proximal, middle, and distal stent sections using the method described by Schwartz et al. (J. Am. Coll. Cardiol., 19:267–274 (1992)).
After analysis of the late loss and injury scores, the average late loss as a function of injury score was plotted for the test stents in each animal. […] The stents were in place in the vessel for 30 days.
Three days prior to insertion of stents each animal received 650 mg aspirin, 500 mg ticlopidine daily, and 120 mg verapamil daily. Aspirin (325 mg) daily was given throughout the duration of the study. The animals were fasted twelve hours prior to stent placement.
For stent placement, each animal was immobilized with an intramuscular injection of 0.5 mg/kg acepromazine, 20 mg/kg ketamine, and 0.05 mg/kg atropine.

[4] = tested on: pig coronary artery (restenosis after overstretch injury); assay: Pig coronary artery overstretch injury model with drug-eluting stents; assay type: in vivo; conditions: for Diameter stenosis: lower score indicates higher efficacy
Experimental: In another study, stents carrying 42-O-(2-ethoxyethyl) rapamycin in the form of a polymer (poly-dl-lactic acid) coating were prepared for insertion into pigs with a vessel overstretch injury to the coronary artery. Comparative and control stents includes bare metal stents, stents having a polymer coating of poly-dl-lactic acid absent drug, stents carrying rapamycin in a poly-dl-lactic acid polymer coating, and stents carrying everolimus in a poly-dl-lactic acid polymer coating. The stents were inserted into vessels which seriously injured (averaging approximately 36% overstretch injury of the vessel) using an angioplasty balloon. […] In this way, it was possible to assess the relative effectiveness of the various test compounds presented to the vessels on the same metal stent/polymer platform. At the time of insertion, the extent of overstretch was recorded as a percent balloon/artery (B/A) ratio.

[5] = tested on: human smooth muscle cells; assay: In vitro potency: growth suppression of smooth muscle cell cultures (human); assay type: cell-based; conditions: FIG. 2, over five orders of magnitude concentration
Experimental: The ability of the cell culture to reproduce was assessed after drug exposure by addition of a colored reagent which causes a color change in the surviving cells, followed by cell cytometry. The ability of the cells to migrate was assessed when cells from the culture moved through a porous membrane barrier adjacent the culture, and again by staining and cell cytometry. The results of these tests are shown in FIG. 2 for human smooth muscle cells.

[6] = cited from earlier work
[7] = drug load 225 μg, polymer coat 225 μg, stent length 15 mm
[8] = high dose, drug load 325 μg, polymer coat 1300 μg, 6 months
[9] = high dose, drug load 325 μg, polymer coat 1300 μg, 28 days
[10] = low dose, drug load 180 μg, polymer coat 1300 μg
[11] = med. dose, drug load 275 μg, polymer coat 640–780 μg

| SMILES | intercept of the zero injury (late loss) [3] [mm] | neointimal response to injury (slope of the regression line of late loss vs injury score) [3] [mm/injury score increment] | Mean lumen loss [4, 9] [mm] | Neointimal area [4, 9] [mm^2] | Diameter stenosis [4, 9] [%] | Mean lumen loss [4, 10] [mm] | Neointimal area [4, 10] [mm^2] | Diameter stenosis [4, 10] [%] | other results |
| --- | --- | --- | --- | --- | --- | --- | --- | --- | --- |
| CCOCCO[C@@H]1CC[C@@H](C[C@@H](C)[C@@H]2CC(=O)[C@H](C)/C=C(\C)[C@@H](O)[C@@H](OC)C(=O)[C@H](C)C[C@H](C)/C=C/C=C/C=C(\C)[C@@H](OC)C[C@@H]3CC[C@@H](C)[C@@](O)(O3)C(=O)C(=O)N3CCCC[C@H]3C(=O)O2)C[C@H]1OC [42-O-(2-ethoxyethyl) rapamycin] | 0.126 | 0.83 |  |  |  |  |  |  | inhibition of growth of smooth muscle cells [1]: effectively inhibited growth of smooth muscle cells; drug load released into the bath [2]: less than half of the drug load released; neointimal thickness at 30 days (late loss), comparison with other stents ([3]; FIGS. 10-11): lower neointimal thickness at 30 days; also recorded: therapeutic effect when compared to bare, metal stents; mean lumen late loss and percent diameter stenosis, comparison with the other stents ([4]; compared to rapamycin, everolimus, bare metal and polymer-coated stents): lowest mean lumen late loss and percent diameter stenosis; Mean lumen loss [4, 7]: 0.62 mm; Neointimal area [4, 7]: 1.30 mm^2; Diameter stenosis [4, 7]: 14.8%; inhibition of growth of smooth muscle cells [5]: effectively inhibited growth of smooth muscle cells; also recorded: inhibited cellular growth as effectively as 42-O-hydroxy heptyl rapamycin (diamonds) or rapamycin |
| COC1CC2CCC(C)C(O)(O2)C(=O)C(=O)N2CCCCC2C(=O)OC(C(C)CC2CCC(OCCCCCCCO)C(OC)C2)CC(=O)C(C)C=C(C)C(O)C(OC)C(=O)C(C)CC(C)C=CC=CC=C1C (stereo not shown) [42-O-hydroxy heptyl rapamycin] | 0.130 | 0.126 |  |  |  |  |  |  |  |
| CO[C@H]1C[C@@H]2CC[C@@H](C)[C@@](O)(O2)C(=O)C(=O)N2CCCC[C@H]2C(=O)O[C@H]([C@H](C)C[C@@H]2CC[C@@H](OCCO)[C@H](OC)C2)CC(=O)[C@H](C)/C=C(\C)[C@@H](O)[C@@H](OC)C(=O)[C@H](C)C[C@H](C)/C=C/C=C/C=C/1C [everolimus] |  |  | 0.84 | 3.54 | 38.0 | 1.54 | 3.41 | 53.0 | Mean lumen loss [4, 8]: 1.15 mm; Neointimal area [4, 8]: 4.18 mm^2; Diameter stenosis [4, 8]: 68.5%; Mean lumen loss [4, 11]: 0.85 mm; Neointimal area [4, 11]: 2.97 mm^2; Diameter stenosis [4, 11]: 45.0% |
| CO[C@H]1C[C@@H]2CC[C@@H](C)[C@@](O)(O2)C(=O)C(=O)N2CCCC[C@H]2C(=O)O[C@H]([C@H](C)C[C@@H]2CC[C@@H](O)[C@H](OC)C2)CC(=O)[C@H](C)/C=C(\C)[C@@H](O)[C@@H](OC)C(=O)[C@H](C)C[C@H](C)/C=C/C=C/C=C/1C [rapamycin] |  |  | 1.07 | 3.75 | 55.0 | 0.99 | 2.80 | 43.0 | solubility in water [6]: 20 micrograms per milliliter |
